# Laboratory results taken from ChEMBL document CHEMBL1201862, “PubChem BioAssay data set” (2004).
# Where a name gives a salt, the structure may show the parent alone.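 Briefly, cells in 96-well plates were exposed to five compound concentrations for 48 h, and endpoints were estimated by linear interpolation. Abbreviation: GI50, concentration required for 50% inhibition of growth.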 The source made the active and inactive calls. Rule as the data show it: active = GI50 up to about 1.1 µM and inactive = higher.
# How the values were obtained:
# Assay in all cases: NCI anticancer screen, dose series, 48 h
# 786-0 = tested on: 786-0
# A498 = tested on: A498
# A549 = tested on: A549
# ACHN = tested on: ACHN
# CAKI-1 = tested on: CAKI-1
# HCC 2998 = tested on: HCC 2998
# HCT-15 = tested on: HCT-15
# HOP-62 = tested on: HOP-62
# LOX IMVI = tested on: LOX IMVI
# MCF7 = tested on: MCF7
# OVCAR-3 = tested on: OVCAR-3
# OVCAR-4 = tested on: OVCAR-4
# OVCAR-8 = tested on: OVCAR-8
# RPMI-8226 = tested on: RPMI-8226
# SK-MEL-2 = tested on: SK-MEL-2
# SK-MEL-5 = tested on: SK-MEL-5
# SK-OV-3 = tested on: SK-OV-3
# T47D = tested on: T47D
# CCRF-CEM = tested on: CCRF-CEM
# NCI-H23 = tested on: NCI-H23
Compound,GI50 (786-0),GI50 (A498),GI50 (A549),GI50 (ACHN),GI50 (CAKI-1),GI50 (HCC 2998),GI50 (HCT-15) [µM],GI50 (HOP-62),GI50 (LOX IMVI),GI50 (MCF7),GI50 (OVCAR-3),GI50 (OVCAR-4),GI50 (OVCAR-8),GI50 (RPMI-8226),GI50 (SK-MEL-2),GI50 (SK-MEL-5),GI50 (SK-OV-3),GI50 (T47D),GI50 (CCRF-CEM),GI50 (NCI-H23)
O=C1OC2(c3ccc(O)cc3Oc3cc(O)ccc32)c2c1c(-c1ccccc1)c(-c1ccccc1)c(-c1ccccc1)c2-c1ccccc1,27.7 µM (inactive),19.7 µM (inactive),34.5 µM (inactive),19.9 µM (inactive),25.1 µM (inactive),16.4 µM (inactive),18.7,23.7 µM (inactive),18.5 µM (inactive),17.1 µM (inactive),34.5 µM (inactive),27.8 µM (inactive),22.4 µM (inactive),27.7 µM (inactive),20 µM (inactive),27.7 µM (inactive),39 µM (inactive),26.5 µM (inactive),,
O=C1c2c(O)cccc2-c2nn(CCNCCO)c3ccc(NCCNCCO)c1c23 [LOSOXANTRONE HYDROCHLORIDE],< 0.0185 µM (active),< 0.0113 µM (active),< 0.01 µM (active),0.0337 µM (active),0.0552 µM (active),0.137 µM (active),2.36,< 0.0169 µM (active),0.0667 µM (active),< 0.01 µM (active),0.598 µM (active),0.605 µM (active),0.159 µM (active),0.432 µM (active),0.436 µM (active),0.0955 µM (active),0.0735 µM (active),0.105 µM (active),< 0.01 µM (active),0.0338 µM (active)
CC(C)(C)OC(=O)NC(Cc1ccc(OCc2ccccc2)cn1)C(=O)NCc1ccccc1 (centres undefined),27.1 µM (inactive),32.1 µM (inactive),36.6 µM (inactive),31.3 µM (inactive),28.6 µM (inactive),34.2 µM (inactive),24.6,23.3 µM (inactive),19.1 µM (inactive),29.5 µM (inactive),19.3 µM (inactive),,26.3 µM (inactive),16.3 µM (inactive),14.3 µM (inactive),13.3 µM (inactive),22.1 µM (inactive),16.7 µM (inactive),12.4 µM (inactive),17 µM (inactive)
O=C1OC(c2ccccc2)=N/C1=C\c1cn[nH]n1,> 100 µM (inactive),> 100 µM (inactive),> 100 µM (inactive),> 100 µM (inactive),> 100 µM (inactive),> 100 µM (inactive),> 100,> 100 µM (inactive),> 100 µM (inactive),> 100 µM (inactive),> 100 µM (inactive),> 100 µM (inactive),> 100 µM (inactive),> 100 µM (inactive),> 100 µM (inactive),,> 100 µM (inactive),> 100 µM (inactive),97.1 µM (inactive),> 100 µM (inactive)
CC1=CC(=O)N(n2c(C)n[nH]c2=O)C1=O,> 100 µM (inactive),> 100 µM (inactive),> 100 µM (inactive),> 100 µM (inactive),> 100 µM (inactive),> 100 µM (inactive),> 100,,> 100 µM (inactive),> 100 µM (inactive),> 100 µM (inactive),> 100 µM (inactive),> 100 µM (inactive),> 100 µM (inactive),> 100 µM (inactive),> 100 µM (inactive),> 100 µM (inactive),> 100 µM (inactive),> 100 µM (inactive),> 100 µM (inactive)
O=C(N/N=C(COc1ccccc1Cl)\N=C\c1cccnc1)c1ccncc1,> 100 µM (inactive),> 100 µM (inactive),> 100 µM (inactive),> 100 µM (inactive),> 100 µM (inactive),> 100 µM (inactive),> 100,> 100 µM (inactive),> 100 µM (inactive),> 100 µM (inactive),> 100 µM (inactive),> 100 µM (inactive),> 100 µM (inactive),> 100 µM (inactive),> 100 µM (inactive),,> 100 µM (inactive),> 100 µM (inactive),> 100 µM (inactive),> 100 µM (inactive)
N#C/C(C(=O)Nc1ccc(Cl)cc1)=C(/N)N1CCOCC1,> 100 µM (inactive),> 100 µM (inactive),> 100 µM (inactive),> 100 µM (inactive),> 100 µM (inactive),> 100 µM (inactive),> 100,73.3 µM (inactive),> 100 µM (inactive),> 100 µM (inactive),96.8 µM (inactive),,> 100 µM (inactive),> 100 µM (inactive),> 100 µM (inactive),74.5 µM (inactive),> 100 µM (inactive),> 100 µM (inactive),> 100 µM (inactive),> 100 µM (inactive)
COC(=O)[C@@H](N1C(=O)c2ccccc2C1=O)C1(C)CC(Cl)=NO1 (some centres undefined),34.8 µM (inactive),34.7 µM (inactive),86.1 µM (inactive),> 100 µM (inactive),12.7 µM (inactive),> 100 µM (inactive),> 100,17 µM (inactive),,53.6 µM (inactive),> 100 µM (inactive),> 100 µM (inactive),19.1 µM (inactive),> 100 µM (inactive),> 100 µM (inactive),> 100 µM (inactive),33.8 µM (inactive),28.5 µM (inactive),> 100 µM (inactive),48.3 µM (inactive)
c1ccc2c(CN3CCN(Cc4c[nH]c5ccccc45)CC3)c[nH]c2c1,16.1 µM (inactive),14.4 µM (inactive),,19.3 µM (inactive),23.5 µM (inactive),1.63 µM (inactive),20,15.1 µM (inactive),16.3 µM (inactive),17.9 µM (inactive),13.1 µM (inactive),41.4 µM (inactive),19 µM (inactive),19.3 µM (inactive),16.7 µM (inactive),15.2 µM (inactive),21.4 µM (inactive),14.2 µM (inactive),39.9 µM (inactive),19.8 µM (inactive)
COc1ccc(-c2nc3ccccc3c(=S)n2OC(C)=O)cc1,3.09 µM (inactive),23.9 µM (inactive),2.5 µM (inactive),2.99 µM (inactive),5.9 µM (inactive),> 25 µM (inactive),0.755,4.76 µM (inactive),4.92 µM (inactive),5.92 µM (inactive),,8.32 µM (inactive),3.1 µM (inactive),3.27 µM (inactive),> 25 µM (inactive),2.93 µM (inactive),5.71 µM (inactive),3.5 µM (inactive),1.5 µM (inactive),1.95 µM (inactive)
COC(=O)C(C(=O)C(=O)NC1Nc2ccc(C)cc2S1)c1nc2ccc(Cl)cc2nc1O (centres undefined),> 100 µM (inactive),> 100 µM (inactive),> 100 µM (inactive),> 100 µM (inactive),> 100 µM (inactive),> 100 µM (inactive),> 100,> 100 µM (inactive),> 100 µM (inactive),> 100 µM (inactive),> 100 µM (inactive),74 µM (inactive),> 100 µM (inactive),> 100 µM (inactive),> 100 µM (inactive),> 100 µM (inactive),> 100 µM (inactive),> 100 µM (inactive),,> 100 µM (inactive)
